Measured values as given in patent US12391674B2, “Heterocyclic compounds for the treatment of epilepsy” (OTSUKA PHARMACEUTICAL CO., LTD., priority 2018, dated 2025).

What was measured:
DBA/2 mice = assay: Audiogenic seizure model; type: in vivo; details: Mus musculus, DBA/2 mice, oral, auditory stimulation 1 hour after administration, read-out: Seizure suppression
Procedure, shortened: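 Male and female DBA/2 mice (3 weeks old, 8/group) dosed orally at 30 mg/kg in 5% gum arabic; 1 h later exposed to 12.6 kHz, 100-110 dB tone for 1 min or until tonic seizure. Maximum seizure score (0–4) recorded; suppression rate graded A (≥90%), B (70–<90%), C (50–<70%).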

ICR mice = assay: Rotarod test (motor coordination); type: in vivo, mouse; details: oral, rotarod 1 hour after administration
Protocol: This test is performed to evaluate the effect of the compound on the motor coordination. In this test example, the example compounds shown in Table 4 below were used as test compounds. Male ICR mice (Japan SLC, Inc., 5-6 weeks, 8 per group) were trained to remain on a fixed speed (15 rpm) rotating rod of rotarod apparatus (Muromachi Kikai Co., Ltd.) for 2 minutes. […] After 1 hour of oral administration, the mice were again placed on the rod accelerated from 4 rpm to 40 rpm over 5 minutes and the latency to fall off the rod was recorded for 200 seconds. The falling latency of the compound administration group was calculated as a relative value relative to the average value of the falling latency in the solvent administration group. Here, a coordination disorder of 25% or less was expressed as “A”, and a coordination disorder of more than 25% and 50% or less was expressed as “B”.

Row | SMILES | inhibition in vivo at 5 mg/kg (DBA/2 mice) | Motor dysfunction (ICR mice; dose 5 mg/kg) | inhibition in vivo at 30 mg/kg (DBA/2 mice) | Motor dysfunction (ICR mice; dose 30 mg/kg) | further results
1 | c1ccc(Oc2ncc(-c3ccc4nncn4c3)cn2)cc1 [Example 129] | > 90% | A (a coordination disorder of 25% or less) | – | – | –
2 | c1cncc(Oc2ncc(-c3ccc4nccn4c3)cn2)c1 [Example 294] | > 90% | A (a coordination disorder of 25% or less) | – | – | –
3 | Nc1ccc(-c2cnc(Oc3ccccc3)nc2)nn1 [Example 30, 6-(2-Phenoxypyrimidin-5-Yl)Pyridazin-3-Amine] | > 90% | A (a coordination disorder of 25% or less) | – | – | –
4 | FC(F)(F)c1cccc(Oc2ncc(-c3ccc4nccn4c3)cn2)c1 [Example 170] | > 90% | A (a coordination disorder of 25% or less) | – | – | –
5 | c1ccc(Oc2ncc(-c3cnc4ncnn4c3)cn2)cc1 [Example 188] | – | – | > 90% | A (a coordination disorder of 25% or less) | –
6 | Cc1cn2cc(-c3cnc(Oc4ccccc4)nc3)ccc2n1 [Example 177] | 70 to 90% | A (a coordination disorder of 25% or less) | – | – | –
7 | O=C1CCN(c2ccc(Cc3cccc(F)c3)cc2)C(=O)N1 [Example 305, 1-(4-(3-Fluorobenzyl)Phenyl)Dihydropyrimidine-2,4 (1H,3H)-Dione] | – | – | > 90% | A (a coordination disorder of 25% or less) | –
8 | FC(F)(F)c1nnc2ccc(-c3cnc(Oc4ccccc4)nc3)cn12 [Example 279] | – | – | – | – | inhibition in vivo at 1 mg/kg (DBA/2 mice): > 90%; Motor dysfunction (ICR mice; dose 1 mg/kg): A (a coordination disorder of 25% or less)
9 | COc1ccc(-c2cnc(Oc3cccnc3)nc2)nn1 [Example 74] | > 90% | A (a coordination disorder of 25% or less) | – | – | –
10 | O=C1CCN(c2ccc(Oc3ccccc3)nc2)C(=O)N1 [Example 320] | – | – | > 90% | B (a coordination disorder of more than 25% and 50% or less) | –
11 | c1ccc(Oc2ncc(-c3ccnnc3)cn2)cc1 [Example 31] | > 90% | A (a coordination disorder of 25% or less) | – | – | –
12 | COc1cccc(Oc2ccc(N3CCC(=O)NC3=O)cc2)c1 [Example 311] | – | – | 70 to 90% | A (a coordination disorder of 25% or less) | –
13 | Nc1cncc(-c2cnc(Oc3ccccc3)nc2)c1 [Example 58] | – | – | > 90% | A (a coordination disorder of 25% or less) | –
14 | O=C1CCc2cc(-c3cnc(Oc4ccccc4)nc3)ccc2N1 [Example 245] | – | – | > 90% | A (a coordination disorder of 25% or less) | –
15 | O=C1CCN(c2ccc(Oc3cccc(F)c3)nc2)C(=O)N1 [Example 332] | – | – | 70 to 90% | A (a coordination disorder of 25% or less) | –
16 | Nc1ccc(-c2cnc(Oc3cccc(F)c3)nc2)nn1 [Example 24, 6-(2-(3-Fluorophenoxy)Pyrimidin-5-Yl)Pyridazin-3-Amine] | > 90% | A (a coordination disorder of 25% or less) | – | – | –
17 | FC(F)(F)c1cn2ccc(-c3cnc(Oc4ccccc4)nc3)cc2n1 [Example 216] | > 90% | A (a coordination disorder of 25% or less) | – | – | –
18 | O=C1CCN(c2ccc(Oc3ccccc3)c(F)c2)C(=O)N1 [Example 329] | – | – | 70 to 90% | A (a coordination disorder of 25% or less) | –
19 | Nc1ccc(-c2cnc(Oc3cccc(OC(F)(F)F)c3)nc2)nn1 [Example 42] | > 90% | A (a coordination disorder of 25% or less) | – | – | –
20 | O=c1ccc(-c2cnc(Oc3cccc(C(F)(F)F)c3)nc2)n[nH]1 [Example 99] | – | – | – | – | inhibition in vivo at 10 mg/kg (DBA/2 mice): > 90%; Motor dysfunction (ICR mice; dose 10 mg/kg): A (a coordination disorder of 25% or less)
21 | O=C1CCN(c2ccc(Oc3cccc(C(F)(F)F)c3)cc2)C(=O)N1 [Example 307] | – | – | 70 to 90% | A (a coordination disorder of 25% or less) | –
22 | c1ccc(Oc2ncc(-c3ccc4ncnn4c3)cn2)cc1 [Example 141] | > 90% | B (a coordination disorder of more than 25% and 50% or less) | – | – | –
23 | OC1CCN(c2cnc(Oc3ccccc3)nc2)CC1 [Example 226, 1-(2-Phenoxypyrimidin-5-Yl) Piperidin-4-Ol] | > 90% | B (a coordination disorder of more than 25% and 50% or less) | – | – | –

Row | SMILES | inhibition in vivo at 5 mg/kg (DBA/2 mice) | Motor dysfunction (ICR mice; dose 5 mg/kg) | inhibition in vivo at 30 mg/kg (DBA/2 mice) | Motor dysfunction (ICR mice; dose 30 mg/kg) | further results
24 | c1ccc(Oc2ncc(-c3ccc4nncn4n3)cn2)cc1 [Example 289] | – | – | – | – | inhibition in vivo at 1 mg/kg (DBA/2 mice): > 90%; Motor dysfunction (ICR mice; dose 1 mg/kg): A (a coordination disorder of 25% or less)
25 | c1ccc(Oc2ncc(-c3cnc4cc[nH]c4c3)cn2)cc1 [Example 137, 6-(2-Phenoxypyrimidin-5-Yl)-1H-Pyrrolo[3,2-b]Pyridine] | – | – | > 90% | A (a coordination disorder of 25% or less) | –
26 | Nc1ccc(-c2cnc(Oc3ccccc3)nc2)cc1 [Example 239, 4-(2-Phenoxypyrimidin-5-Yl) Aniline] | – | – | > 90% | A (a coordination disorder of 25% or less) | –
27 | Cc1ncccc1-c1cnc(Oc2ccccc2)nc1 [Example 34] | – | – | > 90% | A (a coordination disorder of 25% or less) | –
28 | c1ccc(Oc2ncc(-c3ccn4cncc4c3)cn2)cc1 [Example 283] | > 90% | A (a coordination disorder of 25% or less) | – | – | –
29 | Fc1ccccc1Oc1ncc(-c2ccc3nccn3c2)cn1 [Example 121] | > 90% | A (a coordination disorder of 25% or less) | – | – | –
30 | O=C1C[C@H](O)CCN1c1cnc(Oc2ccccc2)nc1 [Example 235] | – | – | > 90% | A (a coordination disorder of 25% or less) | –
31 | [O-][n+]1cccc(-c2cnc(Oc3ccccc3)nc2)c1 [Example 11, 3-(2-Phenoxypyrimidin-5-Yl)Pyridine 1-Oxide] | > 90% | A (a coordination disorder of 25% or less) | – | – | –
32 | Cc1ccc(-c2cnc(Oc3ccccc3)nc2)cn1 [Example 8] | – | – | – | – | inhibition in vivo at 10 mg/kg (DBA/2 mice): > 90%; Motor dysfunction (ICR mice; dose 10 mg/kg): A (a coordination disorder of 25% or less)
33 | c1ccc(Oc2ncc(N3CCOCC3)cn2)cc1 [Example 224] | – | – | > 90% | A (a coordination disorder of 25% or less) | –
34 | Fc1cccc(Oc2ncc(-c3ccc4nccn4c3)cn2)c1 [Example 122] | > 90% | A (a coordination disorder of 25% or less) | – | – | –
35 | CC1CC(=O)NC(=O)N1c1ccc(Oc2ccccc2)cc1 (stereo not shown) [Example 328, 6-Methyl-1-(4-Phenoxyphenyl)Dihydropyrimidine-2,4 (1H,3H)-Dione] | – | – | > 90% | A (a coordination disorder of 25% or less) | –
36 | CCC1CC(=O)NC(=O)N1c1ccc(Oc2ccccc2)cc1 (stereo not shown) [Example 343, 6-Ethyl-1-(4-Phenoxyphenyl)Dihydropyrimidine-2,4 (1H,3H)-Dione] | – | – | > 90% | A (a coordination disorder of 25% or less) | –
37 | O=C1CCN(c2ccc(Oc3ccccc3F)cc2)C(=O)N1 [Example 309] | – | – | > 90% | A (a coordination disorder of 25% or less) | –
38 | COc1cccc(Oc2ncc(-c3ccc4nccn4c3)cn2)c1 [Example 162] | > 90% | A (a coordination disorder of 25% or less) | – | – | –
39 | Nc1ccc(-c2cnc(Oc3ccccc3F)nc2)nn1 [Example 26] | > 90% | A (a coordination disorder of 25% or less) | – | – | –
40 | Cc1nc2cc(-c3cnc(Oc4ccccc4)nc3)ccn2c1C [Example 204] | – | A (a coordination disorder of 25% or less) | > 90% | – | –
41 | N#Cc1cccc(-c2cnc(Oc3ccccc3)nc2)n1 [Example 350] | – | – | – | – | inhibition in vivo at 10 mg/kg (DBA/2 mice): > 90%; Motor dysfunction (ICR mice; dose 10 mg/kg): A (a coordination disorder of 25% or less)
42 | N#Cc1ccc(-c2cnc(Oc3ccccc3)nc2)nc1 [Example 349] | – | – | – | – | inhibition in vivo at 3 mg/kg (DBA/2 mice; dose 3 mg/kg): > 90%; Motor dysfunction (ICR mice; dose 3 mg/kg): A (a coordination disorder of 25% or less)
43 | Fc1ccc(Oc2ncc(-c3ccc4nccn4c3)cn2)cc1 [Example 120] | > 90% | B (a coordination disorder of more than 25% and 50% or less) | – | – | –
44 | COc1ccc(-c2cnc(Oc3ccccc3)nc2)cn1 [Example 6, 5-(6-Methoxypyridin-3-Yl)-2-Phenoxypyrimidine] | > 90% | A (a coordination disorder of 25% or less) | – | – | –
45 | FC(F)(F)c1ccc(-c2cnc(Oc3ccccc3)nc2)cn1 [Example 27] | – | – | > 90% | A (a coordination disorder of 25% or less) | –
46 | O=C1CCN(c2ccc(Oc3cccc(OC(F)(F)F)c3)cc2)C(=O)N1 [Example 306] | – | – | – | A (a coordination disorder of 25% or less) | –
